The values below come from patent publication US11976083B2, “Inhibitors of peptidylarginine deiminases” (Gilead Sciences, Inc., priority 2020, dated 2024).

The target in this assay is T1, human PAD4 (Homo sapiens, UniProt Q9UM07).
T1 construct: human PAD4 (NM_012387), A2-P663, was PCR amplified; His-SUMO (N, cleaved yes); made in house; host or cells: E. coli BL21(DE3)
Put plainly: In vitro PAD4 BAEE biochemical assay. As to conditions: BAEE substrate 3 mM, 5 nM PAD4, 2 mM calcium chloride; geometric mean of multiple experiments. The gist of the method:
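Recombinant human PAD4 (5 nM final) with 2 mM CaCl2 was preincubated with compound 30 min at 25 °C in MOPS buffer pH 7.6, then reacted with 3 mM BAEE for 2 h at 25 °C. After EDTA stop, released ammonia was detected by o-phthalaldehyde/DTT fluorescence (ex 405/em 535 nm); IC50 from four-parameter fit, geometric mean.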

T1 sequence (Q9UM07 2-663): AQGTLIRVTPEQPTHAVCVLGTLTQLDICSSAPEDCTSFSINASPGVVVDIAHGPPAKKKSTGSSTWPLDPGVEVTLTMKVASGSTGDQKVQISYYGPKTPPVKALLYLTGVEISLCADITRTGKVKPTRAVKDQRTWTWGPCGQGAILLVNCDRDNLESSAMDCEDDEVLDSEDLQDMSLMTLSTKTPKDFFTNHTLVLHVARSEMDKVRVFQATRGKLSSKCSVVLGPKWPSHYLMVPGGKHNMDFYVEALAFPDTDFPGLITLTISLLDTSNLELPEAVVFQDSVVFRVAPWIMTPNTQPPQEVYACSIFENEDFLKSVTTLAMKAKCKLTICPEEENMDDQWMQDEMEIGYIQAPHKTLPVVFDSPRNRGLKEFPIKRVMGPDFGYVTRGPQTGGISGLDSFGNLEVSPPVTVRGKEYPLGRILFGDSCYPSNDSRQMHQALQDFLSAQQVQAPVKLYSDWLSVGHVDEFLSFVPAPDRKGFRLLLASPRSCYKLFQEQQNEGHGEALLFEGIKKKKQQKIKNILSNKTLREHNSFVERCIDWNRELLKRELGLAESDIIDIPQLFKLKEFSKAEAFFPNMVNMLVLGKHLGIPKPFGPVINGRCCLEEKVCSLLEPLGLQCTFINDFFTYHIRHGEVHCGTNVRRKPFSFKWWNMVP

Broadly, the IC50 is the concentration that inhibits the measured activity by half. Take `C[C@H]1NC(=O)[C@@H]2C[C@H]2CCCCCn2c(-c3nc4cc(C(=O)N[C@H]5CNCC[C@@H]5F)c(F)cc4n3CCO)cc3ccc1nc32` [Example 601, 6-fluoro-~{N}-[(3~{S},4~ {S})-4-fluoro-3-piperidyl]-1-(2-hydroxyethyl)-2-[(2~{R},5~{R},7~{R})-2-methyl-4-oxo-3,13,19-triazatetracyclo[11.5.2.0^ {5,7}.0^{16,20}]icosa-1(19),14,16(20),17-tetraen-14-yl]benzimidazole-5-carboxamide]: the IC50 amounted to 45 nM.
The figure for `COc1cc(C(=O)N2CC[C@@H](OC)[C@@H](N)C2)cc2nc(-c3cc4ccc5nc4n3CCCCCc3cccnc3C(=O)N[C@@H]5C)n(C)c12` [Example 503, (2~{R})-17-[5-[(3~ {S},4~{R})-3-amino-4-methoxy-piperidine-1-carbonyl]-7-methoxy-1-methyl-benzimidazol-2-yl]-2-methyl-3,6,16,22-tetrazatetracyclo [14.5.2.0^{5,10).0^{19,23}] tricosa-1(22),5(10),6,8,17,19(23),20-heptaen-4-one] is 110 nM; for `COc1cc(C(=O)N2CC[C@@H](OC)[C@@H](N)C2)cc2nc(-c3cc4ccc5nc4n3CCCCCc3ncccc3C(=O)N[C@@H]5C)n(C)c12` [Example 409, (2~{R})-17-[5-[(3~{S},4~{R})-3-amino-4-methoxy-piperidine-1-carbonyl]-7-methoxy-1-methyl-benzimidazol-2-yl]-2-methyl-3,9,16,22-tetrazatetracyclo[14.5.2.0^{5,10}.0^{19,23}] tricosa-1(22),5(10),6,8,17,19(23),20-heptaen-4-one] it is 83 nM.
Regarding `C[C@@H]1[C@H](N)CCCN1C(=O)c1cc(F)c2c(c1)nc(-c1cc3ccc4nc3n1CCCCCc1nc(Cl)ccc1C(=O)N[C@@H]4C)n2C` [Example 741, (2~{R})-17-[5-[(2~{R},3~{R})-3-amino-2-methyl-piperidine-1-carbonyl]-7-fluoro-1-methyl-benzimidazol-2-yl]-8-chloro-2-methyl-3,9,16,22-tetrazatetracyclo[14.5.2.0^ {5,10}.0^{19,23}]tricosa-1(22),5(10),6,8,17,19(23),20-heptaen-4-one], the IC50 came out at 33 nM.
The figure for `COc1cc(C(=O)N2C[C@H](N)[C@@H]3CC[C@H]2C3)cc2nc(-c3cc4ccc5nc4n3CC(F)(F)CCCOC3(CC3)C(=O)N[C@@H]5C)n(C3CC3)c12` [Example 931, (11~{R})-17-[5-[(1~{S},4~{R}, 5~{R})-4-amino-2-azabicyclo [3.2.1]octane-2-carbonyl]-1-cyclopropyl-7-methoxy-benzimidazol-2-yl]-3,3-difluoro-11-methyl-spiro[7-oxa-1,10,19-triazatricyclo[10.5.2.0^ {15,18}]nonadeca-12(19), 13,15(18),16-tetraene-8,1′-cyclopropane]-9-one] is 64 nM; for `CO[C@@H]1CCN(C(=O)c2cc(F)c3c(c2)nc(-c2cc4ccc5nc4n2CC(F)(F)/C=C/C[C@@H]2C[C@H]2C(=O)N[C@@H]5C)n3C2CC2)C[C@@H]1N` [Example 742, (2~{R},5~{R},7~{R},9~{E})-14-[5-[(3~{S},4~{R})-3-amino-4-methoxy-piperidine-1-carbonyl]-1-cyclopropyl-7-fluoro-benzimidazol-2-yl]-11,11-difluoro-2-methyl-3,13,19-triazatetracyclo[11.5.2.0^ {5,7}.0^{16,20}]icosa-1(19), 9,14,16(20),17-pentaen-4-one] it is 58 nM.
The value for `COc1cc(C(=O)N2CC[C@@H](OC)[C@@H](N)C2)cc2nc(-c3cc4ccc5nc4n3CCCCCCc3nccnc3C(=O)N[C@@H]5C)n(C)c12` [Example 606, (2~{R})-18-[5-[(3~{S},4~ {R})-3-amino-4-methoxy-piperidine-1-carbonyl]-7-methoxy-1-methyl-benzimidazol-2-yl]-2-methyl-3,6,9,17,23-pentazatetracyclo[15.5.2.0^ {5,10}.0^{20,24}]tetracosa-1(23),5(10),6,8,18,20(24), 21-heptaen-4-one] was 129 nM.
For the compound `COc1cc(C(=O)N[C@H]2CNCC[C@@H]2F)cc2nc(-c3cc4ccc5nc4n3CCCOC[C@@H]3C[C@H]3C(=O)N[C@@H]5C)n(C)c12` [Example 616, ~{N}-[(3~{S},4~{S})-4-fluoro-3-piperidyl]-7-methoxy-1-methyl-2-[(2~{R},5~{R},7~{R})-2-methyl-4-oxo-9-oxa-3,13,19-triazatetracyclo[11.5.2.0^ {5,7}.0^{16,20}]icosa-1(19),14,16(20), 17-tetraen-14-yl] benzimidazole-5-carboxamide], the IC50 came out at 71 nM.
The value for `COc1cc(C(=O)N2CCC[C@@H](N)C2)cc2nc(-c3cc4ccc5nc4n3CCCCCC[C@@H](C)C(=O)N[C@@H]5C)n(C)c12` [Example 110, (8~{R},11~{R})-17-[5-[(3~{R})-3-aminopiperidine-1-carbonyl]-7-methoxy-1-methyl-benzimidazol-2-yl]-8,11-dimethyl-1,10,19-triazatricyclo[10.5.2.0^{15,18}]nonadeca-12(19),13,15(18),16-tetraen-9-one] was 70 nM; that for `COc1cc(C(=O)N2CCC[C@@H](N)C2)cc2nc(-c3cc4ccc5nc4n3C[C@@H]3C[C@H]3CCCC(C)(C)C(=O)N[C@@H]5C)n(C)c12` [Example 274, (3˜{R},5˜{R},12˜{R})-18-[5-[(3˜{R})-3-aminopiperidine-1-carbonyl]-7-methoxy-1-methyl-benzimidazol-2-yl]-9,9,12-trimethyl-1,11,20-triazatetracyclo[11.5.2.0^{3,5}.0^{16,19}]icosa-13(20),14,16(19),17-tetraen-10-one] was 104 nM.
Consider `C[C@H]1NC(=O)[C@@H]2C[C@H]2CCCCCn2c(-c3nc4cc(C(=O)N[C@H]5CNCC[C@@H]5F)c(F)cc4n3CCOC(F)(F)F)cc3ccc1nc32` [Example 599, 6-fluoro-~{N}-[(3~{S},4~{S})-4-fluoro-3-piperidyl]-2-[(2~{R}, 5~{R},7~{R})-2-methyl-4-oxo-3,13,19-triazatetracyclo[11.5.2.0^ {5,7}.0^{16,20}]icosa-1(19),14,16(20),17-tetraen-14-yl]-1-[2-(trifluoromethoxy)ethyl]benzimidazole-5-carboxamide], for which the IC50 was 67 nM.
On to `COc1cc(C(=O)N2C[C@H](N)[C@@H]3CC[C@H]2C3)cc2nc(-c3cc4ccc5nc4n3CCCCCCCN(C(C)=O)[C@@H]5C)n(C)c12` [Example 907], for which the half-maximal inhibitory concentration (IC50) came to 82 nM.
The figure for `COc1cc(C(=O)N2CCC[C@@H](N)C2)cc2nc(-c3cc4ccc5nc4n3CC[C@H]3C[C@H]3COCCC(=O)N[C@@H]5C)n(C)c12` [Example 306, (4~{R},6~{R},13~{R})-19-[5-[(3~{R})-3-aminopiperidine-1-carbonyl]-7-methoxy-1-methyl-benzimidazol-2-yl]-13-methyl-8-oxa-1,12,21-triazatetracyclo[12.5.2.0^{4,6}.0^{17,20}] henicosa-14(21),15,17(20),18-tetraen-11-one] is 85 nM; for `COc1cc(C(=O)N2C[C@H](N)[C@@H]3CC[C@H]2C3)cc2nc(-c3cc4ccc5nc4n3CCCCC[C@H]3[C@H](C(=O)N[C@@H]5C)C3(F)F)n(C)c12` [Example 757, (2~{R},5~{R},7~{S})-14-[5-[(1~{S},4~{R},5~{R})-4-amino-2-azabicyclo[3.2.1]octane-2-carbonyl]-7-methoxy-1-methyl-benzimidazol-2-yl]-6,6-difluoro-2-methyl-3,13,19-triazatetracyclo[11.5.2.0^ {5,7}.0^{16,20}]icosa-1(19), 14,16(20),17-tetraen-4-one] it is 5 nM.
